From patent US20260297508A1, “MODULATORS OF PROTEIN SECRETION” (SANOFI, priority 2023, published 2026)

What was measured:
ErbB2 tyrosine kinase = conditions: ErbB2 vs EGFR; cited from earlier work
[1] = system: biotin-induced antibody release, U2OS clone #7 cells; assay: Low-throughput validation by imaging of the biotin-induced antibody release (cytoplasmic GFP), clone #7; assay type: cell-based, human; conditions: FIG. 5C
Protocol: FIGS. 5A-5C show selection of potential enhancers of protein secretion. FIGS. 5A and 5B) show dot plot representations of drugs efficiency based on their Z-scores measured at low and high drug concentration (FIG. 5A, Prestwick library; FIG. 5B, ICCB Known Bioactives and TargetMol Autophagy libraries). Compounds selected for further characterization are listed. (FIG. 5C) Clone #7 was treated with the indicated compounds, fixed and analyzed as described in FIG. 4A legend.
FIG. 6A-6C show validation of enhancers of protein secretion.
(§1) U2OS clone #7 cells were seeded in black 384-well imaging plates (Greiner bio one), 2,000 cells/well, and incubated for 24 h at 37° C. in a humidified incubator with 5% CO2. Cells were treated on the next day with the compounds from either the Prestwick library at […], the ICCB Known Bioactives library at 1/100^e or 1/1000^e, or the autophagy compound library at 10 μM or 1 μM for 4 h. […] Cells were then fixed as described above and processed for subsequent automated image acquisition using a robot-assisted IXM XL BioImager (Molecular Devices, Sunnyvale, CA, USA) equipped with a Sola light source (Lumencor, Beaverton, OR, USA), adapted excitation and emission filters (Semrock) a 16-bit monochrome sCMOS PCO.edge 5.5 camera (PCO, Kelheim, Germany). A 20× PlanAPO objective (Nikon, Tokyo, Japan) was used to acquire a minimum of 4 view fields in each well. […] Nuclei were first detected using Hoechst 33342 signal and used as a marker to detect cytoplasmic areas based on GFP signal, allowing for the evaluation of cytoplasmic GFP intensity. Data were thereafter extracted and statistically evaluated using R (https://www.r-project.org). […]
Medium- and high-throughput screenings often yield false positive and negative hits, calling for independent validation in low-throughput experiments with orthogonal technologies. In a first round of experiments, we evaluated the effects of shortlisted compounds with potential antibody secretion enhancer activity. […]

TrKC = conditions: cited from earlier work
TrKB = conditions: cited from earlier work
TrKA = conditions: cited from earlier work
[2] = system: biotin-induced antibody release, U2OS clone #7 cells; assay: High-throughput RUSH screen: biotin-induced cytoplasmic GFP signal decay (antibody release), U2OS clone #7; assay type: cell-based, human; conditions: for inhibition of the biotin-induced decrease of the GFP signal: 4 h compound, then 40 μM biotin 1 h, screening; for retention of the RUSH antibody in the cytoplasm: screening campaigns, summary
Protocol: FIGS. 4A-4C show the high-throughput screening of chemical compound libraries for the identification of modulators of protein secretion. […] U2OS clone #7 is plated in 384-well plates and incubated for 24 h before treatment with each compound of the Prestwick, ICCB Known Bioactives, or Autophagy Compound Library at 2 concentrations, low and high (with a 10-fold difference). […] The results of the Prestwick library screening at the low drug concentration are plotted. Brefeldin A was used as a positive control of the inhibition of secretion. The compounds causing a cytoplasmic GFP intensity below that observed for biotin-only treated cells are potential enhancers of protein secretion.
U2OS cells were transfected with the streptavidin-KDEL plasmid using Lipofectamine 2000 (Thermo Fisher Scientific) and selected in medium supplemented with G418 (400 μg/mL, Gibco-Invitrogen) for 2 weeks. Limiting dilution in 96-well plates was used for single cell isolation from the selected pool. Clones were amplified and selected based on streptavidin immunofluorescence. Clone #BD6 showing the highest streptavidin expression was further expanded in medium supplemented with G418 (200 μg/mL) and transfected with the anti-PD-L1 IgG RUSH plasmid using Lipofectamine 2000 and selected in medium supplemented with G418 (200 μg/mL) and hygromycin (100 μg/mL, Santa Cruz Biotechnology) for 2 weeks. Limiting dilution in 96-well plates was used for single cell isolation from clone #BD6-derived selected pool. Clones were amplified and selected based on GFP fluorescence and clone #7 was selected for further characterization and screening campaigns.
U2OS clone #7 cells were seeded in black 384-well imaging plates (Greiner bio one), 2,000 cells/well, and incubated for 24 h at 37° C. in a humidified incubator with 5% CO2. Cells were treated on the next day with the compounds from either the Prestwick library at […], the ICCB Known Bioactives library at 1/100^e or 1/1000^e, or the autophagy compound library at 10 μM or 1 μM for 4 h. […] Cells were then fixed as described above and processed for subsequent automated image acquisition using a robot-assisted IXM XL BioImager (Molecular Devices, Sunnyvale, CA, USA) equipped with a Sola light source (Lumencor, Beaverton, OR, USA), adapted excitation and emission filters (Semrock) a 16-bit monochrome sCMOS PCO.edge 5.5 camera (PCO, Kelheim, Germany). A 20× PlanAPO objective (Nikon, Tokyo, Japan) was used to acquire a minimum of 4 view fields in each well. The acquired images were processed using the open-access R software (https://www.r-project.org) with the help of freely available packages EBImage (available on the Bioconductor repository https://www.bioconductor.org), and RBioFormats (https://github.com/aoles/RBioFormats), and the custom packages MetaxpR (https://github.com/asauvat/MetaxpR) and MorphR (https://github.com/kroemerlab/MorphR). Nuclei were first detected using Hoechst 33342 signal and used as a marker to detect cytoplasmic areas based on GFP signal, allowing for the evaluation of cytoplasmic GFP intensity. Data were thereafter extracted and statistically evaluated using R (https://www.r-project.org). Data were normalized using negative and positive controls, reduced and transformed into a Z-score. The experiments were repeated manually at low scale with selected drugs to confirm their effects on secretion, in this second set of assays, U2OS clone #7 cells incubated with secretion inhibitors were fixed and stained with Hoechst as described above for imaging and viability determination based on cell counts.
We next sought to use clone #7 in screening campaigns for the identification of drugs capable of enhancing or inhibiting antibody secretion. […] Cell counting was facilitated by nuclear counterstaining with Hoechst 33324 in order to assess viability and distinguish drug effects on the secretion kinetics from direct cytotoxicity and select relevant drugs for further characterization. […]

U2OS clone #7 cells = assay: Toxicity assay: Hoechst staining, number of adherent living cells; assay type: cell-based, human; conditions: 50 μg/mL; FIG. 7B
Protocol: (§2) FIGS. 7A and 7B show validation of inhibitors of protein secretion. […] Clone #7 cells were treated with the indicated compounds and supernatants were assayed for PD-L1 binding. Brefeldin A was used as a protein secretion inhibitor positive control. […] Hoechst 33324 fluorescence was measured, which enabled to number adherent living cells in each well.
as §1, with “Germany).” for “Germany). A 20× PlanAPO objective (Nikon, Tokyo, Japan) was used to acquire a minimum of 4 view fields in each well.”

[3] = system: RUSH antibody secretion, U2OS clone #7 cells; assay: ELISA on immobilized PD-L1: RUSH antibody titer in supernatant of treated clone #7 cells; assay type: cell-based, human; conditions: 50 μg/mL; for inhibition of antibody secretion, validation: summary; for suppression of antibody secretion compared with brefeldin A: 4 h compound, biotin 30 min, FIG. 7A
Protocol: as §2
U2OS clone #7 cells were seeded in 6-well plates and kept for 24 h at 37° C. in a humidified incubator with 5% CO2. The next day, the supernatants were removed, cells were rinsed with 37° C. pre-heated PBS and new medium containing the chemical treatment was added for 4 h. […] Then supernatants were collected and used for the ELISA assay as follows. MaxiSorp 96-well plates (Thermo Fisher Scientific) were coated with 0.5 μg/mL hFc-human-PD-L1 (R&D Systems, Minneapolis, MN) in PBS for 5.5 h at RT. Coating solution was then removed and 2% BSA/PBS blocking solution was added overnight at 4° C. The next day, wells were washed 3 times with 0.5% BSA/0.05% Tween-20/PBS solution. Supernatants were added after a ⅓ dilution in 0.5% BSA/0.05% Tween-20/PBS, for 2.3 h at RT. Wells were washed 3 times with 0.5% BSA/0.05% Tween-20/PBS solution. Anti-human kappa light chain HRP-coupled antibody was added diluted in 0.5% BSA/0.05% Tween-20/PBS at 1/4000^e for 2.3 h at RT. Wells were washed 3 times with 0.5% BSA/0.05% Tween-20/PBS solution before incubation with substrate reagents pack (R&D Systems) for 15 min in the dark. Fifty μL of STOP solution (R&D Systems) were then added to each well and the absorbance in each well was subsequently measured at 450 nm, and 635 nm for background subtraction, using a VICTOR™ X4 (PerkinElmer, Waltham, MA).
Medium- and high-throughput screenings often yield false positive and negative hits, calling for independent validation in low-throughput experiments with orthogonal technologies. In a first round of experiments, we evaluated the effects of shortlisted compounds with potential antibody secretion enhancer activity. Compounds identified in the screening campaigns were tested again on clone #7 at a low concentration (FIG. 6A) or a ten-fold higher concentration (FIG. 6B) for their ability to increase antibody secretion. […] We further characterized these hits in an PD-L1 binding ELISA.

tyrosine kinase = tyrosine kinase inhibitor; cited from earlier work
eryptosis; apoptosis = conditions: cited from earlier work
NLRP3 = conditions: cited from earlier work

Which “specificity to ErbB2 over EGFR” value (ErbB2 tyrosine kinase) does the source give for `CC(C)(C)c1cc(/C=C(\C#N)C(N)=S)cc(C(C)(C)C)c1O` [tyrphostin AG-879] here?
The value was “at least 500 fold”.

What about the “effect on secretion by cell imaging” value [1] of the same molecule?
Its value is “inhibitory effect”.

And the “inhibitory effect on TrKC” value (TrKC)?
The value was “no inhibitory effect”.

What about the “inhibitory effect on TrKB” value (TrKB) of the same molecule?
The value was “no inhibitory effect”.

What about the “inhibition of TrKA phosphorylation” value (TrKA) of the same molecule?
Its value is “effectively inhibits TrKA phosphorylation”.

What about the “inhibition of the biotin-induced decrease of the GFP signal” value [2] of the same molecule?
Its value is “inhibited the biotin-induced cytoplasmic GFP signal decay”.

And the “retention of the RUSH antibody in the cytoplasm” value [2]?
The value was “caused the retention of the RUSH antibody in the cytoplasm”.

What about the cellular viability (U2OS clone #7 cells) of the same molecule?
The cellular viability was “without affecting cellular viability”.

What about the “inhibition of antibody secretion, validation” value [3] of the same molecule?
The value was “validated as an inhibitor of antibody secretion”.

And the “suppression of antibody secretion compared with brefeldin A” value [3]?
Its value is “as potent as brefeldin A in suppressing antibody secretion”.

And the IC50 (tyrosine kinase)?
The IC50 was 10 µM.

What does the source list for `CO[C@@H]1C[C@@H](C[C@H]2CC[C@H](C)[C@H]([C@@H](C)C(=O)O)O2)O[C@]2(O[C@](C)([C@H]3CC[C@@](C)([C@@H]4O[C@@H]([C@H]5O[C@@](O)(CO)[C@H](C)C[C@@H]5C)C[C@@H]4C)O3)C[C@H]2C)[C@@H]1C` [nigericin]?
effect on secretion by cell imaging [1]: inhibitory effect; apoptosis (eryptosis; apoptosis): triggers apoptosis; eryptosis (eryptosis; apoptosis): promote eryptosis; inhibition of the biotin-induced decrease of the GFP signal [2]: inhibited the biotin-induced cytoplasmic GFP signal decay; retention of the RUSH antibody in the cytoplasm [2]: caused the retention of the RUSH antibody in the cytoplasm; cellular viability (U2OS clone #7 cells): without affecting cellular viability; inhibition of antibody secretion, validation [3]: confirmed as a secretion inhibitor; suppression of antibody secretion compared with brefeldin A [3]: as potent as brefeldin A in suppressing antibody secretion; NLRP3 activation, release of IL-1β (NLRP3): leading to the release of IL-1β
